Reference: article PMC10349806 (Nature Communications, 2023)
Changes are numbered by the printed parent chain. “And” between values parts separate entries of the source, which are not always exact repeats. Equal entries are not always repeated.

Key:
PfCRT variant D377A = target: T1, PfCRT variant D377A (Plasmodium falciparum, UniProt Q9N623, A220S/D377A/I356T/K76T/M74I/N326S/N75E/Q271E/R371I); experiment: CQ uptake assay, oocytes expressing D377A; type: cell-based
T1 sequence (Q9N623 1-424 M74I/N75E/K76T/A220S/Q271E/N326S/I356T/R371I/D377A): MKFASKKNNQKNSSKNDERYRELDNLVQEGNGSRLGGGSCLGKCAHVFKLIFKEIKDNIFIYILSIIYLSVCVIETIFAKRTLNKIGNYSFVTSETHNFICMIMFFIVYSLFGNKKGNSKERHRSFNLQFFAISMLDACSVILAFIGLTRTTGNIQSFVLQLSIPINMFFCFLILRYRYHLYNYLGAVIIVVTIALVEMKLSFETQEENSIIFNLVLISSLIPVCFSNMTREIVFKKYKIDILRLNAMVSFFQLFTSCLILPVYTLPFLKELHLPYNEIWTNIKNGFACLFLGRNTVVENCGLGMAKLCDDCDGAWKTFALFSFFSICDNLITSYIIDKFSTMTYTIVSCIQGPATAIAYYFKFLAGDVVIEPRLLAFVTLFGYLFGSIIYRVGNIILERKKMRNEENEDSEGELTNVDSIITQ
Experimental: (§1) Site-directed mutagenesis of PfCRT^Dd2 was performed as described using the megaprimer method with overlap extension[21],[54]. The primer pairs used are listed in Supplementary Table 6. Please note that a codon-optimized and oocyte-adapted version of PfCRT^Dd2 was used[22] (Supplementary Fig. 16). The resulting DNA fragment was cloned into the SP64T expression vector and verified by sequencing.
(§2) Oocytes were obtained as described previously. Briefly, adult (>2 years old) female X. laevis frogs (NASCO) were anesthetized in a cooled solution of ethyl 3-amino benzoate methanesulfonate (0.1%, w/v), followed by a surgical removal of parts of the ovary. The ovary lobes were carefully dissected and small pieces of oocytes were incubated in Ca^2+-free ND96 buffer (96 mM NaCl, 2 mM KCl, 1 mM MgCl2 buffered with 5 mM HEPES/NaOH, pH 7.5) supplemented with collagenase D (0.1%, w/v; Roche), BSA (0.5%, w/v), and 9 mm Na2HPO4 at 18 °C for 14-16 h while gentle shaking. After incubation, the oocytes were carefully washed several times with ND96 buffer (96 mM NaCl, 2 mM KCl, 1.8 mM CaCl2, 1 mM MgCl2 buffered with 5 mM HEPES/NaOH, pH 7.5) supplemented with 100 mg l^−1 gentamycin). Defolliculated and healthy-looking stage V-VI oocytes were manually selected for RNA microinjection. The RNA was generated as following: The codon-optimized sequences of PfCRT variants were cloned into the pSP64T expression vector. After vector linearization using the restriction endonucleases BamHI or SalI (New England Biolabs), transcription was performed using the in vitro SP6 mMessage mMachine Kit (Ambion)[34]. The obtained RNA was kept at −80 °C and diluted with nuclease-free water to a concentration of 0.6 μg μl^−1. Precision-bore glass capillary tubes (3.5-inch glass capillaries; Drummond Scientific Co.) were pulled on a vertical puller (P-87 Flaming/Brown micropipette puller, Sutter Instrument Co.), graduated, and placed on a microinjector (Nanoject II Auto-Nanoliter Injector, Drummond Scientific Co.). 50 nl of nuclease-free water alone (control oocytes) or 50 nl of 0.6 μg μl^−1 RNA were injected under stereomicroscopic control. Injected oocytes were incubated for 46–72 h at 18 °C with twice-daily buffer changes before usage in experiments.
(§3) Drug uptake assays were performed as described previously[21],[22],[24],[34]. […] The direction of radio-labeled drug transport is here from the mostly acidic extracellular solution (pH 4.5 or 6.0, as indicated) into the oocyte cytosol (pH ∼ 7.2), which corresponds to the efflux of drug from the acidic digestive vacuole (pH 5.2) into the parasite cytoplasm (pH 7.2). The topology of PfCRT in the oolemma is such that both the N- and C-terminus face the extracellular milieu[3],[22]. In the parasite, the N- and C-terminus face the lumen of the digestive vacuole. CQ uptake kinetics were performed by incubating oocytes in ND96 buffer adjusted to a pH of 4.5, 5.0, 5.5, or 6.0 and supplemented with 50 nM [^3H]CQ and one of 7 different CQ concentrations (10 µM, 50 µM, 100 µM, 200 µM, 300 µM, 400 µM, 500 µM CQ). The reaction was stopped at the 60 min time point, which is in the linear uptake range[22],[34] (Supplementary Fig. 17). For determination of the amount of drug uptake for each oocyte, the reaction medium was removed and the oocytes were washed three times with 2 ml of ice-cold ND96 buffer. Each oocyte was individually transferred to a scintillation vial containing 5% sodium dodecyl sulfate (200 μl) for lysis. The radioactivity of each sample was measured using a liquid scintillation analyzer Tri-Carb 4910 TR (PerkinElmer). Oocytes that were injected with water instead of RNA were analyzed in parallel, representing the uptake of a drug by diffusion and/or endogenous permeation pathways. The resulting value represents the “background“ level of drug accumulation in oocytes (in-depth discussion in[22]). […]

[1] = target: T2, PfCRT variant CD2 (D24A, D57A, Y179A, F235A, D241A, E406A, D419A) (Plasmodium falciparum, UniProt Q9N623, A220S/D241A/D24A/D419A/D57A/E406A/F235A/I356T/K76T/M74I/N326S/N75E/Q271E/R371I/Y179A); experiment: CQ uptake assay, oocytes expressing CD2; type: cell-based
T2 sequence (Q9N623 1-424 D24A/D57A/M74I/N75E/K76T/Y179A/A220S/F235A/D241A/Q271E/N326S/I356T/R371I/E406A/D419A): T1 sequence (Q9N623 1-424 M74I/N75E/K76T/A220S/Q271E/N326S/I356T/R371I/D377A) with D24A, D57A, Y179A, F235A, D241A, A377D, E406A, D419A
Experimental: as §1, §2, §3

[2] = D377A, 50 µM CQ, 1 h, mean ± SEM
[3] = pH 4.5, single replicates, Fig 1d left
[4] = pH 6.0, single replicates, Fig 1d left

SMILES: CCN(CC)CCCC(C)Nc1ccnc2cc(Cl)ccc12 (stereo not drawn) [CQ, chloroquine]
- Activity at pH 4.5 (PfCRT variant D377A; [2]): 0.62 ± 0.01 pmol h-1 oocyte-1
- Activity at pH 6.0 (PfCRT variant D377A; [2]): 1.44 ± 0.13 pmol h-1 oocyte-1
- R-value (PfCRT variant D377A; D377A, CQ transport at pH 4.5 / pH 6.0): 0.44 ± 0.04
- D377A transport activity pH 4.5 (PfCRT variant D377A; [3]): 0.64 pmol oocyte-1 h-1 and 0.61 pmol oocyte-1 h-1
- D377A R-value (PfCRT variant D377A; pH 4.5 vs pH 6.0, Fig 1d left): 0.44 and 0.36 and 0.52
- D377A transport activity pH 6.0 (PfCRT variant D377A; [4]): 1.44 pmol oocyte-1 h-1 and 1.71 pmol oocyte-1 h-1 and 1.17 pmol oocyte-1 h-1
- Activity at pH 4.5 ([1]; CD2, 50 µM CQ, 1 h, mean ± SEM): 1.26 ± 0.05 pmol h-1 oocyte-1
- Activity at pH 6.0 ([1]; CD2, 50 µM CQ, 1 h, mean ± SEM): 2.31 ± 0.23 pmol h-1 oocyte-1
- R-value ([1]; CD2, CQ transport at pH 4.5 / pH 6.0): 0.56 ± 0.05
- CD2 transport activity pH 4.5 [1, 3]: 1.18 pmol oocyte-1 h-1 and 1.21 pmol oocyte-1 h-1 and 1.38 pmol oocyte-1 h-1
- CD2 R-value ([1]; pH 4.5 vs pH 6.0, Fig 1d left): 0.68 and 0.46 and 0.54
- CD2 transport activity pH 6.0 [1, 4]: 1.74 pmol oocyte-1 h-1 and 2.62 pmol oocyte-1 h-1 and 2.56 pmol oocyte-1 h-1
